The nature of data set [1]: Example 1: rat pharmacokinetics of CBD and THC from cannabis extract (1:1 THC:CBD), IV bolus and oral gavage in MCT, TG-O3 or MAG-O3 carrier oil. The conditions noted are these: intravenous administration of cannabis extract in lipid-free solution, at 5 minutes (data not shown).
The nature of data set [2]: Example 2: rat pharmacokinetics of CBD and THC from cannabis extract (1:1 THC:CBD), IV bolus and oral gavage in MCT, TG-O3 or krill oil (PL-O3). In kind it is in vivo. Particulars: intravenous administration of cannabis extract in lipid-free solution, at 5 minutes (data not shown). The text has this:
The study design and methods of analyses of the pre-clinical study were the same as disclosed in Example 1.
Values are expressed as mean±SEM.

As for `C=C(C)[C@@H]1CCC(C)=C[C@H]1c1c(O)cc(CCCCC)cc1O` [CBD, cannabidiol], the peak plasma concentration in data set [1] and in data set [2] was 1193 ± 290 ng/mL each time.

Regarding `CCCCCc1cc(O)c2c(c1)OC(C)(C)[C@@H]1CCC(C)=C[C@@H]21` [THC, Δ^9tetrahydrocannabinol], the peak plasma concentration in data set [1] and in data set [2] was 864 ± 194 ng/mL throughout.
